{"source": "patent US20140356343A1", "about": "“COMPOSITION FOR TREATING PARKINSON'S DISEASE” (priority 2011, published 2014)", "tested_on": "unilateral 6-hydroxydopamine (6-OHDA) lesioned rat", "format": "in vivo, Male Sprague-Dawley rats", "settings": "for effect on onset of rotational action of apamin: given with apamin", "description": "The potential antiparkinsonian activity of apitoxin (bee venom; Alyostal®), and certain of its constituents such as apamin, melittin, hyaluronidase, and others were investigated in the standard, unilateral 6-hydroxydopamine (6-OHDA) lesioned rat model, in animals responding to an apomorphine challenge, according to the method previously described with minor modifications (Oh J D, Chartisathian K, Ahmed S M, and Chase T N. (2003) J of Neurosci. Res. 72, 768-780, Oh J D, Chartisathian K, Chase T N and Butcher L L, (2000) Brain Res. 853, 174-185, Oh J D and Chase T N. (2002) Amino Acids 23, 133-139, Oh J D, Del Dotto P, Chase T N. (1997) Neurosci Lett. 228, 5-8, Oh J D, Geller A I, Zhang G, Chase T N. (2003) Br. Res. 971, 18-30, Oh J D, Russell D, Vaughan C L and Chase T N. (1998) Br. Res. 813, 150-159.). Conventional anti-parkinsonian dopamine (DA) agonists, apomorphine, amphetamine, and L-dopa were used as comparator drugs. Control animals received vehicle, phosphate buffered saline (PBS). Rotation (turning) behavior in response to drug challenge was used as a predictor of anti-parkinson activity. All compounds or vehicle were administered either subcutaneously (s.c.) or intraperitonealy (i.p.).\nThe anti-parkinson activity of various test substances was studied as previously described 1-6. Male Sprague-Dawley rats weighing approximately 300 g were housed with free access to food and water. Under […] (50 mg/kg, i.p.), the nigrostriatal pathway was unilaterally lesioned by administering 6-OHDA HCl (8 μg in 4 μL of saline with 0.02% ascorbate) into the left medial forebrain bundle (AP −5.0, L 1.3, V 8.0 from the dura mater). Following surgery, rats were challenged with apomorphine (0.1 mg/kg, s.c.), to confirm the lesion of nigro-striatal pathway. Rats that responded to apomorphine were kept for further testing.\nRats received test drugs, comparator drugs, or vehicle on post-surgical Week 3 following 6-OHDA lesioning and subsequently for additional […] (Week 4-10 post-surgery).\nRotation behavior was measured by placing rats in a rotometer and measuring turning behavior over 5-minute periods (5-min bins). To measure rotation behavior, each animal was placed at least 10 minutes prior to the drug or vehicle administration into a rotometer and turning was measured. Animals then received test drugs, and turning behavior was measured as described above for 4 to 12 hours post-drug administration.", "key": {"[1]": {"settings": "PL-A2 alone, approximately 2 and 3 mg/kg i.p."}, "[2]": {"settings": "Phospholipase A2 alone, dose range 2 to 3 mg/kg"}, "[3]": {"settings": "Melittin 0.5 to 3 mg/kg with apamin 0.5 to 1.0 mg/kg"}, "[4]": {"settings": "Melittin alone, dose range 1-3 mg/kg"}, "[5]": {"settings": "Hyaluronidase alone, dose range 10 to 30 mg/kg"}}, "note": "Like-named read-outs stand apart in the source and are kept apart here. No end group written: not given here."}
{"compound": "Phospholipase A-2 [Phospholipase A2]", "values": [{"measurement": "effect on rotatory response to apamin", "setting": "0.5 mg/kg apamin and 5 mg/kg PLA-2", "value": "potentiated"}, {"measurement": "duration of ipsilateral rotations", "setting": "[1]", "value": "about 4 hours"}, {"measurement": "rotational response", "setting": "[1]", "value": "induced ipsilateral rotations"}, {"measurement": "start of ipsilateral rotations after administration", "setting": "[1]", "value": "1 to 4", "unit": "h"}, {"measurement": "Atypical Motor Behaviors", "setting": "PL-A2 given alone", "value": "No atypical motor behaviors were observed"}, {"measurement": "motor response", "setting": "PL-A2 given alone, 1 mg/kg i.p.", "value": "minimal squirming response"}, {"measurement": "effect on onset of turning behavior", "setting": "PLA-2 given with apamine", "value": "accelerated"}, {"measurement": "effect on turning behavior", "setting": "PLA-2 given with apamine", "value": "moderately potentiated"}, {"measurement": "Atypical Motor Behaviors", "setting": "[2]", "value": "None"}, {"measurement": "Rotational Response Contralateral", "setting": "[2]", "value": "10 number of turns in 12 hours"}, {"measurement": "Rotational Response Ipsilateral", "setting": "[2]", "value": "50 to 60 number of turns in 12 hours"}, {"measurement": "ability similar to apamin to induce a conspicuous turning response", "setting": "apitoxin component given alone", "value": "none"}, {"measurement": "effect on onset of rotational action of apamin", "value": "significantly hasten"}]}
{"compound": "CC[C@H](C)[C@H](NC(=O)CN)C(=O)NCC(=O)N[C@@H](C)C(=O)N[C@H](C(=O)N[C@@H](CC(C)C)C(=O)N[C@@H](CCCCN)C(=O)N[C@H](C(=O)N[C@@H](CC(C)C)C(=O)N[C@H](C(=O)N[C@H](C(=O)NCC(=O)N[C@@H](CC(C)C)C(=O)N1CCC[C@H]1C(=O)N[C@@H](C)C(=O)N[C@@H](CC(C)C)C(=O)N[C@H](C(=O)N[C@@H](CO)C(=O)N[C@@H](Cc1c[nH]c2ccccc12)C(=O)N[C@H](C(=O)N[C@@H](CCCCN)C(=O)N[C@@H](CCCNC(=N)N)C(=O)N[C@@H](CCCCN)C(=O)N[C@@H](CCCNC(=N)N)C(=O)N[C@@H](CCC(N)=O)C(=O)N[C@@H](CCC(N)=O)C(N)=O)[C@@H](C)CC)[C@@H](C)CC)[C@@H](C)O)[C@@H](C)O)C(C)C)C(C)C", "note": "[Melittin]", "values": [{"measurement": "effect on rotatory response to apamin", "setting": "0.25 mg/kg apamin and 0.75 mg/kg melittin", "value": "potentiated"}, {"measurement": "atypical motor behaviors that apamin usually induces", "setting": "[3]", "value": "mild to absence"}, {"measurement": "onset of contralateral rotations", "setting": "[3]", "value": "faster onset"}, {"measurement": "Atypical Motor Behaviors", "setting": "[4]", "value": "None"}, {"measurement": "Rotational Response Contralateral", "setting": "[4]", "value": "10 number of turns in 12 hours"}, {"measurement": "Rotational Response Ipsilateral", "setting": "[4]", "value": "45 to 50 number of turns in 12 hours"}, {"measurement": "ability similar to apamin to induce a conspicuous turning response", "setting": "apitoxin component given alone", "value": "none"}, {"measurement": "effect on onset of rotational action of apamin", "value": "significantly hasten"}, {"measurement": "rotational response", "setting": "melittin alone 0.5 to 10 mg/kg i.p., contralateral more frequent than ipsilateral", "value": "modest, intermittent rotational response"}]}
{"compound": "Mast Cell Degranulating Peptide (IKCNCKRHVIKPHICRKICGKN; ends and bridges not checked; cysteine pairing not given here; UniProt P01499 28-49, looked up) [apitoxin component, GenScript #RP10663, reference compound]", "values": [{"measurement": "ability similar to apamin to induce a conspicuous turning response", "setting": "apitoxin component given alone", "value": "none"}]}
{"compound": "Tertiapin (ALCNCNRIIIPHMCWKKCGKK; UniProt P56587 1-21, looked up) [apitoxin component, Sigma-Aldrich #T8316, reference compound]", "values": [{"measurement": "Atypical Motor Behaviors", "setting": "Tertiapin alone, 1 and 3 mg/kg", "value": "None"}, {"measurement": "Rotational Response Contralateral", "setting": "Tertiapin alone, 1 and 3 mg/kg", "value": "5 number of turns in 12 hours"}, {"measurement": "Rotational Response Ipsilateral", "setting": "Tertiapin alone, 1 and 3 mg/kg", "value": "40 number of turns in 12 hours"}, {"measurement": "rotational behavior above baseline (spontaneous rotation)", "setting": "Tertiapin at 1 and 3 mg/kg", "value": "little or no rotational behavior"}, {"measurement": "ability similar to apamin to induce a conspicuous turning response", "setting": "apitoxin component given alone", "value": "none"}]}
{"compound": "CC(C)C[C@@H]1NC(=O)[C@H](C)NC(=O)[C@H]([C@@H](C)O)NC(=O)[C@H](CCC(=O)O)NC(=O)[C@@H]2CCCN2C(=O)[C@H](C)NC(=O)[C@H](CCCCN)NC(=O)[C@@H]2CSSC[C@@H](C(=O)N[C@@H](CCC(N)=O)C(=O)N[C@@H](CCC(N)=O)C(=O)N[C@@H](Cc3cnc[nH]3)C(N)=O)NC(=O)[C@H](CCCNC(=N)N)NC(=O)[C@H](CCCNC(=N)N)NC(=O)[C@H](C)NC(=O)[C@H](CSSC[C@H](N)C(=O)N[C@@H](CC(N)=O)C(=O)N2)NC1=O", "note": "[Apamin, apamin]", "values": [{"measurement": "Atypical Motor Behaviors", "setting": "Apamin 0.5 mg/kg alone", "value": "None"}, {"measurement": "Atypical Motor Behaviors", "setting": "Apamin 1 mg/kg alone", "value": "Mild"}, {"measurement": "Atypical Motor Behaviors (dose at which seen)", "setting": "apamin alone", "value": "≧1.5 mg/kg"}, {"measurement": "doses at which abnormal motor behaviors increasingly interfered with normal and rotatory motor behaviors", "setting": "apamin alone", "value": "1.5 to 3.0", "unit": "mg/kg"}, {"measurement": "doses at which abnormal motor behaviors were clinically insignificant", "setting": "apamin alone", "value": "0.75 to 1.50", "unit": "mg/kg"}, {"measurement": "dose at which atypical motor behavior began to appear", "setting": "apamin alone, tremors, dystonic postures, alterations in muscular tone, locomotor incoordination", "value": "about 1.5 mg/kg"}, {"measurement": "therapeutic index compared with apitoxin", "setting": "motoric response, apamin alone", "value": "lower therapeutic index"}]}
{"compound": "CC(N)Cc1ccccc1", "note": "(centres unmarked) [amphetamine, reference compound]", "values": [{"measurement": "effect on apamin-induced ipsilateral rotation", "setting": "amphetamine co-administration at less than the standard dose of 0.05 mg/kg i.p.", "value": "mildly potentiate"}]}
{"compound": "Secapin [reference compound]", "values": [{"measurement": "Atypical Motor Behaviors", "setting": "Secapin alone, 1-20 mg/kg", "value": "None"}, {"measurement": "Rotational Response Contralateral", "setting": "Secapin alone, 1-20 mg/kg", "value": "5 number of turns in 12 hours"}, {"measurement": "Rotational Response Ipsilateral", "setting": "Secapin alone, 1-20 mg/kg", "value": "40 number of turns in 12 hours"}, {"measurement": "rotational behavior above baseline (spontaneous rotation)", "setting": "Secapin at 1 to 20 mg/kg", "value": "little or no rotational behavior"}, {"measurement": "ability similar to apamin to induce a conspicuous turning response", "setting": "apitoxin component given alone", "value": "none"}]}
{"compound": "Hyaluronidase", "values": [{"measurement": "effect on atypical motor behaviors induced by apamin", "setting": "1.0 mg/kg apamin and 20 mg/kg hyaluronidase", "value": "reduced"}, {"measurement": "Atypical Motor Behaviors", "setting": "[5]", "value": "None"}, {"measurement": "Rotational Response Contralateral", "setting": "[5]", "value": "5 number of turns in 12 hours"}, {"measurement": "Rotational Response Ipsilateral", "setting": "[5]", "value": "40 number of turns in 12 hours"}, {"measurement": "ability similar to apamin to induce a conspicuous turning response", "setting": "apitoxin component given alone", "value": "none"}, {"measurement": "effect on ipsilateral turning behavior induced by apamin", "setting": "hyaluronidase 5 to 20 mg/kg i.p. with apamin 0.1 to 1.0 mg/kg", "value": "mildly potentiated"}, {"measurement": "turning", "setting": "hyaluronidase given alone, 0.5 to 30 mg/kg i.p.", "value": "did not induce turning"}, {"measurement": "effect on atypical motor behaviors observed with higher doses of apamin", "setting": "hyaluronidase with apamin, vs apamin given alone", "value": "decreased"}]}
{"compound": "CN1CCc2cccc3c2[C@H]1Cc1ccc(O)c(O)c1-3", "note": "[Apomorphine, apomorphine, reference compound]", "values": [{"measurement": "effect on apamin-induced contralateral rotations", "setting": "apomorphine co-administration at less than standard dose, 0.005 mg/kg s.c.", "value": "mildly potentiate"}]}
{"compound": "HTGAVLAGV [HTGAVLAGV, reference compound]", "values": [{"measurement": "Atypical Motor Behaviors", "setting": "HTGAVLAGV alone, 1-10 mg/kg", "value": "None"}]}
{"compound": "NCCc1c[nH]cn1", "note": "[histamine, Histamine, reference compound]", "values": [{"measurement": "ability similar to apamin to induce a conspicuous turning response", "setting": "rat, in vivo", "value": "none"}]}
{"compound": "N[C@@H](Cc1ccc(O)c(O)c1)C(=O)O", "note": "[levodopa, reference compound]", "values": [{"measurement": "effect on apamin-induced contralateral rotations", "setting": "levodopa co-administration at less than standard dose, 5 mg/kg i.p.", "value": "mildly potentiate"}]}
